Measured values taken from patent publication US12336980B2, “Dosing regimen for a selective S1P1 receptor agonist” (Vanda Pharmaceuticals Inc., priority 2014, dated 2025).

Test system: healthy subjects
Assay: Holter ECG, mean hourly heart rate and AUEC, two-way cross-over up-titration study
Type: in vivo, human
Conditions: for mean hourly HR change from baseline at nadir (Holter): p <0.05 vs. baseline; for mean hourly HR change from baseline (Holter): Day 3, 2 h post-dose
Method: In a single-center, double-blind, placebo-controlled, randomized, two-way cross-over study, 32 healthy subjects (15 males) received placebo on Day 1 followed by multiple-dose administration of either ponesimod or placebo (ratio 3:1). Ponesimod was administered alternately using regimen A (incremental dose increase from 2 to 20 mg) or B (10 mg for 7 days followed by a single-dose administration of 20 mg). Cardiodynamic (Holter and 12-lead ECG), pharmacokinetic, pharmacodynamic (total lymphocyte count), and safety variables were assessed.
The enrolled subjects came to the study center for each treatment period on Day −2 and participated in a run-in (all study procedures performed without study drug administration) on Day −1. On Day 1, subjects were randomized to one of the two possible sequences of the two up-titration regimens A and B (ratio 1:1). On Day 1, all subjects received placebo; the first study drug administration (or its matching placebo) occurred on Day 2. Regimen A consisted of the novel up-titration regimen: ponesimod was administered once daily (o.d.) orally at a dose of 2 mg on Day 2 and Day 3, 3 mg on Day 4 and Day 5, 4 mg on Day 6 and Day 7, 5 mg on Day 8, 6 mg on Day 9, 7 mg on Day 10, 8 mg on Day 11, 9 mg on Day 12, 10 mg on Day 13 and Day 14, and 20 mg on Day 15. The reference regimen (regimen B) was based on previous studies (Olsson T. et al., Oral ponesimod in relapsing-remitting multiple sclerosis: a randomised phase II trial. J Neurol Neurosurg Psychiatry. 2014; 85 (11): 1198-1208; and Vaclavkova A. et al., Oral ponesimod in patients with chronic plaque psoriasis: a randomised, double-blind, placebo-controlled phase 2 trial. Lancet. 2014; 384 (9959): 2036-2045) and consisted of an o.d. oral administration of ponesimod at a dose of 10 mg for 7 days (i.e., from Day 2 to Day 8) and 20 mg on Day 9. From Day 10 to Day 15 subjects received o.d. the matching placebo. In the placebo group (1:1 sex ratio), subjects received placebo from Day 1 to Day 15. All treatments were administered at the same time in the morning (fasted condition) with approximately 240 mL of water.
Cardiodynamic endpoints were assessed using Holter and 12-lead ECG. The 24-h Holter recordings were performed on Day -1, Day 1, Day 2, Day 9, Day 13, and Day 15. The 12-h Holter recordings were performed on the other days. In addition, Holter data were used to estimate the area under the effect curve (AUEC) for HR. 12-lead ECGs were performed from Day −1 to Day 16 at pre-dose and 1, 2, 3, 4, 5, 6, 8, 10, and 12 h after study drug administration. An additional 12-lead ECG recording was performed at EOFP and EOS. Heart rate nadir, Emax (maximum decrease of mean hourly HR from baseline, which was defined as the mean of the time-matched assessments measured on Day −1 and Day 1 pre-dose), and occurrence of values of interest (HR <45 bpm, HR decrease from baseline >20 bpm, and PR interval increase from baseline >20 ms), and AV-blocks (i.e., PR interval >210 ms) were obtained with 12-lead ECG.
Cardiodynamic and pharmacodynamic data are expressed as mean±SD. Repeated measure one-way ANOVAs followed by Tukey's multiple-comparisons tests were used to perform inter-group (i.e., placebo vs. regimen A vs. regimen B) comparisons. Student's t-tests were employed to perform intra-group (baseline vs. treatment) comparisons. Differences were considered to be statistically significant at p <0.05. SAS® version 9.2 (SAS Institute, Cary, NC, USA) was used for the statistical analysis and descriptive statistics of clinical data.

Structure (SMILES): CCC/N=C1\S/C(=C\c2ccc(OC[C@H](O)CO)c(Cl)c2)C(=O)N1c1ccccc1C [ponesimod, (R)-5-[3-chloro-4-(2,3-dihydroxy-propoxy)-benz[Z]ylidene]-2-([Z]-propylimino)-3-o-tolyl-thiazolidin-4-one]
- time for mean hourly HR to return to pre-dose values after administration (Day 2 first dose, regimens A and B): 4 to 5 h
- decrease in mean hourly HR following administration (Day 4 to last day of treatment): no further significant decreases
- mean hourly HR change from baseline at nadir (Holter) (regimen A (2 mg), Day 2 first dose, 2 h post-dose, mean±SD): −6±7.4 bpm
- mean hourly HR change from baseline (Holter) (regimen A (2 mg), mean±SD): −8±5.3 bpm
- mean AUEC0-12 for HR (regimen A, Day 2 first administration, mean±SD): −70.7±38.7 bpm·h
- time of nadir of mean hourly HR after administration (regimen A, Day 2 first dose): 2 h
- mean AUEC0-12 for HR (regimen A, Day 3, mean±SD): −105.5±49.0 bpm·h
- mean hourly HR change from baseline at nadir (Holter) (regimen B (10 mg), Day 2 first dose, 3 h post-dose, mean±SD): −12±6.9 bpm
- mean hourly HR change from baseline (Holter) (regimen B (10 mg), mean±SD): −9±5.7 bpm
- mean AUEC0-12 for HR (regimen B (ponesimod 10 mg), Day 3, mean±SD): −146.6±59.8 bpm·h
- mean AUEC0-12 for HR (regimen B, Day 2 first administration, mean±SD): −128.6±63.3 bpmh
- time of nadir of mean hourly HR after administration (regimen B, Day 2 first dose): 3 h
